The results in this text go back to patent publication US20180111913A1, “SUBSTITUTED BENZOFURAN DERIVATIVES AS NOVEL ANTIMYCOBACTERIAL AGENTS” (priority 2015, published 2018).

The first assay deals with Mtb Pks13-TE domain (wild-type) (Mycobacterium tuberculosis, UniProt I6X8D2). Nature of the assay: biochemical. Format: biochemical. The following applies: Mtb Pks13-TE domain; mean ± s.d. of triplicates; read-out: IC50.
Sequence of Mtb Pks13-TE domain (wild-type) (I6X8D2 1451-1733): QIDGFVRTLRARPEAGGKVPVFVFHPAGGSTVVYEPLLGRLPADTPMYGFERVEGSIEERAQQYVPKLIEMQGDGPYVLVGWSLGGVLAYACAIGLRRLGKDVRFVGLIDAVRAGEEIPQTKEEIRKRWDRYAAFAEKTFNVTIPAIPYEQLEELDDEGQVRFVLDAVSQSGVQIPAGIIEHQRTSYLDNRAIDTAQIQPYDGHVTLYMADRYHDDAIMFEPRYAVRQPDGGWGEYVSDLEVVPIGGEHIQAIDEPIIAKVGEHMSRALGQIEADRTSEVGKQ
Consider `CCOC(=O)c1c(-c2ccc(O)cc2)oc2ccc(O)c(CN3CCCCC3)c12` [compound 22], for which the IC50 came to 0.17 ± 0.02 µM.

Still in this assay, the particulars now being: Pks13-TE, 20 μM 4-MUH; read-out: IC50.
For `CCOC(=O)c1c(-c2ccc(F)cc2)oc2cc(O)cc(CCN)c12` [compound 242], the IC50 was greater than 20 µM. On the same count and under the same terms, the value for `CCOC(=O)c1c(-c2ccc(F)cc2)oc2cc(O)cc(CCNC(CO)CO)c12` [compound 78] was 13 µM; that for `CNC(=O)c1c(-c2ccccc2)oc2ccc(O)c(CCN(C(C)C)C(C)C)c12` [compound 140] was greater than 40 µM; that for `CCOC(=O)c1c(-c2ccc(F)cc2)oc2cc(O)cc(CCNC(=O)C(C)N)c12` (centres unmarked) [compound 81] was greater than 40 µM. Same read-out and setting: next, `CNC(=O)c1c(-c2ccccc2)oc2ccc(O)c(CCN[C@@H](Cc3cnc[nH]3)C(=O)NC)c12` [compound 259]: 1 µM; `CNC(=O)c1c(-c2ccccc2)oc2ccc(O)c(CCN3CCN(CCO)CC3)c12` [compound 157]: greater than 40 µM; `CNC(=O)c1c(-c2ccccc2)oc2ccc(O)c(CCC3CCOC3=O)c12` (centres unmarked) [compound 240]: greater than 40 µM. Still for that read-out and setting: the value for `CCOC(=O)c1c(-c2ccc(F)cc2)oc2cc(O)cc(CCNCC(O)CO)c12` (centres unmarked) [compound 79] was greater than 20 µM.

`CCOC(=O)c1c(-c2ccccc2)oc2ccc(O)c(CCNC(CO)Cc3cnc[nH]3)c12` (centres unmarked) [compound 256]: the IC50 is 1.5 µM. The same measure, in the same setting: the value for `CCOC(=O)c1c(-c2ccc(O)cc2)oc2ccc(O)c(CN3CCCCC3)c12` [compound 22] was 0.19 µM. On the same count and under the same terms, the value for `CNC(=O)c1c(-c2ccccc2)oc2ccc(O)c(CCNCC3CCCO3)c12` (centres unmarked) [compound 252] was 1.6 µM; that for `CNC(=O)c1c(-c2ccccc2)oc2ccc(O)c(CCN3CCCCC3CO)c12` (centres unmarked) [compound 155] was greater than 40 µM. `CCOC(=O)c1c(-c2ccccc2)oc2ccc(O)c(CCCN3CC(O)C3)c12` [compound 197]: the IC50 was determined as 7.5 µM. Same read-out and setting: the value for `CCOC(=O)c1c(-c2ccccc2)oc2ccc(O)c(CCNC(C(=O)O)C(F)(F)F)c12` (centres unmarked) [compound 247] was greater than 40 µM.

Consider `CNC(=O)c1c(-c2ccccc2)oc2ccc(O)c(CCN3CCC(CO)CC3)c12` [compound 153], for which the IC50 is greater than 40 µM.

With `CNC(=O)c1c(-c2ccccc2)oc2ccc(O)c(CCCN3CCC4(CC3)CC(=O)C4)c12` [compound 207], the IC50 came out at 10 µM. Still for that read-out and setting: the value for `CNC(=O)c1c(-c2ccccc2)oc2ccc(O)c(CCN3CCC(O)CC3)c12` [compound 152] was greater than 40 µM.

In the case of `CN(C)C(=O)c1c(-c2ccc(O)cc2)oc2cc(O)cc(CCCN3CCC3)c12` [compound 208], the IC50 stood at 4 µM.

On to `CC(C)NCCc1cc(O)cc2oc(-c3ccc(F)cc3)c(CO)c12` [compound 76], for which the IC50 is greater than 20 µM. Still for that read-out and setting: the value for `CNC(=O)c1c(-c2ccccc2)oc2ccc(O)c(CCN3CCC(C(F)(F)F)CC3)c12` [compound 232] was greater than 20 µM.

Regarding `CNC(=O)c1c(-c2ccc(F)cc2)oc2cc(O)cc(CCN[C@@H](Cc3ccco3)C(=O)O)c12` [compound 262], the IC50 was greater than 40 µM. In the case of `CCOC(=O)c1c(-c2ccccc2)oc2ccc(O)c(CCNC3CCOC3)c12` (centres unmarked) [compound 254], the IC50 was found to be 2.7 µM. Still for that read-out and setting: next, `CCOC(=O)c1c(-c2ccccc2)oc2ccc(O)c(CCCNCc3ccoc3)c12` [compound 255]: 2.1 µM; `CCOC(=O)c1c(-c2ccccc2)oc2ccc(O)c(CCN3CC4COCC4C3)c12` (centres unmarked) [compound 266]: 10 µM. The same measure, in the same setting: next, `CCOC(=O)c1c(-c2ccc(F)cc2)oc2cc(O)cc(CC[N+](C)(C)C)c12` [compound 75]: greater than 20 µM; `CNC(=O)c1c(-c2ccccc2)oc2ccc(O)c(CCCN3CCCC4(CC(=O)C4)C3)c12` [compound 194]: greater than 40 µM. On to `CCOC(=O)c1c(-c2ccc(F)cc2)oc2cc(O)cc(CCNC3CCC(O)CC3)c12` (centres unmarked) [compound 225], for which the IC50 is greater than 40 µM. Same read-out and setting: the value for `CCOC(=O)c1c(-c2ccccc2)oc2ccc(O)c(CCCN3CCCC3CCO)c12` (centres unmarked) [compound 170] was 4.3 µM; that for `CNC(=O)c1c(-c2ccccc2)oc2ccc(O)c(CCN3CCC(CO)(CBr)C3)c12` (centres unmarked) [compound 258] was 2.5 µM; that for `CCOC(=O)c1c(-c2ccccc2)oc2ccc(O)c(CN3CCCCC3=O)c12` [compound 52] was greater than 20 µM. Same read-out and setting: next, `CNC(=O)c1c(-c2ccccc2)oc2ccc(O)c(CCNC3CCCCC3)c12` [compound 145]: 10 µM. For the compound `CNC(=O)c1c(-c2ccccc2)oc2ccc(O)c(CCCNCc3ncco3)c12` [compound 190], the IC50 was greater than 40 µM. Turning to `CCOC(=O)c1c(-c2ccccc2)oc2ccc(O)c(CN3CCC(F)(F)CC3)c12` [compound 119], the IC50 was 0.8 µM. Still for that read-out and setting: next, `CCOC(=O)c1c(-c2ccccc2)oc2ccc(O)c(CCN3CCC4(CC3)COC4)c12` [compound 267]: greater than 40 µM. On to `CCOC(=O)c1c(-c2ccccc2)oc2ccc(O)c(CCCN3CC(CO)C3)c12` [compound 198], for which the IC50 turned out to be 5 µM. On the same count and under the same terms, next, `Cc1nc2c(CN3CCCC3)c(O)ccc2[nH]1` [compound 111]: 10 µM; `CCOC(=O)c1c(-c2ccccc2)oc2ccc(O)c(CCCN3CCSC3)c12` [compound 173]: 5 µM.

As for `CCOC(=O)c1c(-c2ccccc2)oc2ccc(O)c(CCCN3CCCC3C/C=C/C(=O)NC)c12` (centres unmarked) [compound 181], the IC50 is 2.5 µM. For the compound `CNC(=O)c1c(-c2ccccc2)oc2ccc(O)c(CCN3CCS(=O)(=O)CC3)c12` [compound 138], the IC50 is greater than 40 µM. Still for that read-out and setting: the value for `CNC(=O)c1c(-c2ccccc2)oc2ccc(O)c(CCCNCC(C)c3ncco3)c12` (centres unmarked) [compound 196] was greater than 20 µM; that for `CNC(=O)c1c(-c2ccccc2)oc2ccc(O)c(CCN3CCCC(CO)C3)c12` (centres unmarked) [compound 154] was greater than 20 µM; that for `CCOC(=O)c1c(-c2ccccc2)oc2ccc(O)c(CCN[C@@H](CC(N)=O)C(=O)O)c12` [compound 246] was 20 µM. On the same count and under the same terms, next, `CNC(=O)c1c(-c2ccccc2)oc2cc(O)cc(CN3CCC(O)CC3)c12` [compound 68]: greater than 20 µM; `CCOC(=O)c1c(-c2ccccc2)oc2ccc(O)c(CCC3CCNCC3)c12` [compound 176]: greater than 40 µM; `CCOC(=O)c1c(-c2ccc(F)cc2)oc2cc(O)cc(CCNC(=O)OCc3ccccc3)c12` [compound 243]: greater than 40 µM. The same measure, in the same setting: the value for `CCOC(=O)c1c(-c2ccccc2)oc2ccc(O)c(CCN3CCC(CCCCO)C3)c12` (centres unmarked) [compound 178] was 2 µM. Regarding `CCOC(=O)c1c(-c2ccccc2)oc2ccc(O)c(CCNC3CCOCC3)c12` [compound 241], the IC50 is greater than 20 µM. Same read-out and setting: the value for `CCOC(=O)c1c(-c2ccccc2)oc2ccc(O)c(CCCN3CCC[C@H]3C)c12` [compound 180] was 1.9 µM; that for `CCOC(=O)c1c(-c2ccccc2)oc2ccc(O)c(CCN3CCC(CCCC(N)=O)C3)c12` (centres unmarked) [compound 187] was 0.5 µM; that for `CCOC(=O)c1c(-c2ccccc2)oc2ccc(O)c(CCCN3CCCC(CO)C3)c12` (centres unmarked) [compound 169] was greater than 40 µM. Same read-out and setting: next, `CNC(=O)c1c(-c2ccccc2)oc2ccc(O)c(CCNC3CCC3)c12` [compound 147]: 3.5 µM; `CNC(=O)c1c(-c2ccccc2)oc2ccc(O)c(CCCN3CCC3)c12` [compound 271]: 7 µM. For the compound `Cc1nc2c(CN3CCC(C)CC3)c(O)ccc2[nH]1` [compound 9], the IC50 was found to be 10 µM. On the same count and under the same terms, next, `CNC(=O)c1c(-c2ccccc2)oc2ccc(O)c(CCN3CCCCC3)c12` [compound 143]: greater than 20 µM; `CCOC(=O)c1c(-c2ccccc2)oc2ccc(O)c(CCN3[C@H](C)CCC[C@@H]3C)c12` [compound 150]: greater than 40 µM. Same read-out and setting: the value for `CNC(=O)c1c(-c2ccccc2)oc2ccc(O)c(CCN3CCCCC3C(F)(F)F)c12` (centres unmarked) [compound 237] was greater than 20 µM; that for `CCOC(=O)c1c(-c2ccc(F)cc2)oc2cc(O)cc(CCNC(=O)C3CCCN3)c12` (centres unmarked) [compound 226] was greater than 40 µM.

On to `CNC(=O)c1c(-c2ccccc2)oc2ccc(O)c(CCN[C@H](C)Cc3cnc[nH]3)c12` [compound 260], for which the IC50 turned out to be 4 µM. As for `CNC(=O)c1c(-c2ccccc2)oc2ccc(O)c(CCNc3ccccc3)c12` [compound 144], the IC50 is greater than 40 µM. The same measure, in the same setting: the value for `CCOC(=O)c1c(-c2ccc(F)cc2)oc2cc(O)cc(CCNCCN)c12` [compound 80] was greater than 40 µM; that for `CCOC(=O)c1c(-c2ccccc2)oc2ccc(O)c(CCN3CCC4(COC4)C3)c12` [compound 264] was 2.5 µM; that for `CCOC(=O)c1c(-c2ccccc2)oc2ccc(O)c(CCCN3CCCC3CCC(=O)NC)c12` (centres unmarked) [compound 184] was greater than 10 µM. For `CNC(=O)c1c(-c2ccccc2)oc2ccc(O)c(CCN3CCC(CCO)CC3)c12` [compound 158], the IC50 was found to be 20 µM. Turning to `CNC(=O)c1c(-c2ccccc2)oc2ccc(O)c(CCN3CCCCC3CCO)c12` (centres unmarked) [compound 156], the IC50 was greater than 40 µM. Same read-out and setting: next, `CNC(=O)c1c(-c2ccccc2)oc2ccc(O)c(CCN3CC(CO)(CBr)C3)c12` [compound 257]: 1.25 µM.

As to `CCOC(=O)c1c(-c2ccccc2)oc2ccc(O)c(CCN3CCSC3C)c12` (centres unmarked) [compound 177], the IC50 is 1 µM.

Consider `CCOC(=O)c1c(-c2ccccc2)oc2ccc(O)c(CCN3CCCOC3)c12` [compound 193], for which the IC50 amounted to 5 µM. Same read-out and setting: next, `CCOC(=O)c1c(-c2ccccc2)oc2ccc(O)c(CCCC3CCCC3)c12` [compound 236]: greater than 10 µM; `CNC(=O)c1c(-c2ccccc2)oc2ccc(O)c(CCN[C@@H](Cc3cnc[nH]3)C(=O)OC)c12` [compound 250]: 2.4 µM; `CNC(=O)c1c(-c2ccccc2)oc2ccc(O)c(CCN3CCCC(C(F)(F)F)C3)c12` (centres unmarked) [compound 233]: greater than 10 µM.

Turning to `CCOC(=O)c1c(-c2ccccc2)oc2ccc(O)c(CCN3CC(C#N)C3)c12` [compound 227], the IC50 was greater than 20 µM. The same measure, in the same setting: next, `CNC(=O)c1c(-c2ccccc2)oc2ccc(O)c(CCCN3CC(O)C(O)C3)c12` (centres unmarked) [compound 163]: greater than 40 µM.

Still in this assay, the particulars now being: Pks13-TE; read-out: IC50 (μM), given as NB / NI.
As to `CCOC(=O)c1c(-c2ccccc2)oc2ccc(OC)c(CC3CCCCC3)c12` [compound 15], the IC50 is greater than 20 µM.
